Laboratory results: PMC7397466, “Expression, purification and crystal structure determination of a ferredoxin reductase from the actinobacterium Thermobifida fusca” (Acta Crystallographica. Section F, Structural Biology …, 2020)

Molecular target: T1, FdR9 (Thermobifida fusca, UniProt Q47QF8)
T1 construct: gene Tfu_1273
Assay: X-ray crystal structure, […] Å
Type: binding
Settings: copurified cofactor; crystals at pH 6.5, 298 K

T1 sequence (Q47QF8 entry or part of it): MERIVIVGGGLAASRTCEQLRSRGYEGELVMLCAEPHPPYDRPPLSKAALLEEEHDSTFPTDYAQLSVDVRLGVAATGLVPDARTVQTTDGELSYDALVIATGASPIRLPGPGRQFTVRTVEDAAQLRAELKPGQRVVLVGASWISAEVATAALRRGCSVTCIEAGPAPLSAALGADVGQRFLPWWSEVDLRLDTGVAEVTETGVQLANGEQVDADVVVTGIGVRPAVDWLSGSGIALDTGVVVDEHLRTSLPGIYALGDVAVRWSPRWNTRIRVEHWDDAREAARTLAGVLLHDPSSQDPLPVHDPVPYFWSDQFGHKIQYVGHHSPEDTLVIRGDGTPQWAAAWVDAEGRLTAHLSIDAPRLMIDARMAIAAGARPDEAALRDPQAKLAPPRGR

Cc1cc2nc3c(=O)[nH]c(=O)nc-3n(C[C@H](O)[C@H](O)[C@H](O)COP(=O)(O)OP(=O)(O)OC[C@H]3O[C@@H](n4cnc5c(N)ncnc54)[C@H](O)[C@@H]3O)c2cc1C [FAD]
X-ray crystal structure, 1.9 Å: The resulting electron-density map allowed the identification of the FAD molecule bound to the reductase
